Assay results reported in patent publication US7138361B2, “Herbicidal heterocycles” (E. I. du Pont de Nemours and Company, priority 2000, dated 2006).

Legend:
Type in all cases: in vivo
[1] = test system: smallflower flatsedge (Cyperus difformis); experiment: Test B flooded paddy test; details: Rate 1000 g/ha, scale of 0 to 100 where 0 is no effect and 100 is complete control, visually evaluated after 13 to 15 days
Experimental: (§1) At the same time, plants selected from these crop and weed species and also blackgrass (Alopecurus myosuroides), wheat (Triticum aestivum) and wild oat (Avena fatua) were treated with postemergence applications of test chemicals formulated in the same manner. Plants ranged in height from 2 to 18 cm (1- to 4-leaf stage) for postemergence treatments. Plant species in the flooded paddy test consisted of rice (Oryza saliva), smallflower flatsedge (Cyperus difformis), duck salad (Heteranthera limosa) and barnyardgrass (Echinochloa crus-galli) grown to the 2-leaf stage for testing. Treated plants and controls were maintained in a greenhouse for 13 to 15 days, after which time all species were compared to controls and visually evaluated. Plant response ratings, summarized in Table B, are based on a scale of 0 to 100 where 0 is no effect and 100 is complete control. A dash (-) response means no test result.

rice (Oryza saliva) [2] = experiment: Test B flooded paddy test; details: Rate 1000 g/ha, scale of 0 to 100 where 0 is no effect and 100 is complete control, visually evaluated after 13 to 15 days
Experimental: as §1

[3] = test system: duck salad (Heteranthera limosa); experiment: Test B flooded paddy test; details: Rate 1000 g/ha, scale of 0 to 100 where 0 is no effect and 100 is complete control, visually evaluated after 13 to 15 days
Experimental: as §1

[4] = test system: barnyardgrass (Echinochloa crus-galli); experiment: Test B flooded paddy test; details: Rate 1000 g/ha, scale of 0 to 100 where 0 is no effect and 100 is complete control, visually evaluated after 13 to 15 days
Experimental: as §1

[5] = test system: blackgrass (Alopecurus myosuroides); experiment: Test B postemergence; details: 13 to 15 days
Procedure, shortened: (§2)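 Greenhouse test: chemicals are formulated in a surfactant-containing non-phytotoxic solvent and applied either preemergence to planted seeds or postemergence to plants 2 to 18 cm tall. Response is rated visually versus controls after 13 to 15 days, 0 meaning no effect and 100 complete control.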

[6] = test system: velvetleaf (Abutilon theophrasti); experiment: Test B postemergence; details: 13 to 15 days
Procedure, shortened: as §2

[7] = test system: giant foxtail (Setaria faberii); experiment: Test B postemergence; details: 13 to 15 days
Procedure, shortened: as §2

wild oat (Avena fatua) = experiment: Test B postemergence; details: 13 to 15 days
Procedure, shortened: as §2

corn (Zea mays) [8] = experiment: Test B postemergence; details: 13 to 15 days
Procedure, shortened: as §2

[9] = test system: Surinam grass (Brachiaria decumbens); experiment: Test B postemergence; details: 13 to 15 days
Procedure, shortened: as §2

[10] = test system: wheat (Triticum aestivum); experiment: Test B postemergence; details: 13 to 15 days
Procedure, shortened: as §2

[11] = test system: crabgrass (Digitaria sanguinalis); experiment: Test B postemergence; details: 13 to 15 days
Procedure, shortened: as §2

[12] = test system: cocklebur (Xanthium strumarium); experiment: Test B postemergence; details: 13 to 15 days
Procedure, shortened: as §2

[13] = test system: lambsquarters (Chenopodium album); experiment: Test B postemergence; details: 13 to 15 days
Procedure, shortened: as §2

[14] = test system: pigweed (Amaranthus retroflexus); experiment: Test B postemergence; details: 13 to 15 days
Procedure, shortened: as §2

[15] = test system: barnyardgrass (Echinochloa crus-galli); experiment: Test B postemergence; details: 13 to 15 days
Procedure, shortened: as §2

[16] = test system: morning glory (Ipomoea hederacea); experiment: Test B postemergence; details: 13 to 15 days
Procedure, shortened: as §2

[17] = test system: velvetleaf (Abutilon theophrasti); experiment: Test B preemergence; details: Preemergence, Rate 500 g/ha; scale 0 to 100, 0 no effect, 100 complete control
Procedure, shortened: as §2

[18] = test system: giant foxtail (Setaria faberii); experiment: Test B preemergence; details: scale 0 to 100, 0 no effect, 100 complete control
Procedure, shortened: as §2

corn (Zea mays) [19] = experiment: Test B preemergence; details: scale 0 to 100, 0 no effect, 100 complete control
Procedure, shortened: as §2

[20] = test system: Surinam grass (Brachiaria decumbens); experiment: Test B preemergence; details: scale 0 to 100, 0 no effect, 100 complete control
Procedure, shortened: as §2

[21] = test system: crabgrass (Digitaria sanguinalis); experiment: Test B preemergence; details: scale 0 to 100, 0 no effect, 100 complete control
Procedure, shortened: as §2

[22] = test system: cocklebur (Xanthium strumarium); experiment: Test B preemergence; details: scale 0 to 100, 0 no effect, 100 complete control
Procedure, shortened: as §2

rice (Oryza saliva) [23] = experiment: Test B preemergence; details: Preemergence, Rate 500 g/ha; scale 0 to 100, 0 no effect, 100 complete control
Procedure, shortened: as §2

[24] = test system: lambsquarters (Chenopodium album); experiment: Test B preemergence; details: scale 0 to 100, 0 no effect, 100 complete control
Procedure, shortened: as §2

[25] = test system: pigweed (Amaranthus retroflexus); experiment: Test B preemergence; details: Preemergence, Rate 500 g/ha; scale 0 to 100, 0 no effect, 100 complete control
Procedure, shortened: as §2

[26] = test system: barnyardgrass (Echinochloa crus-galli); experiment: Test B preemergence; details: scale 0 to 100, 0 no effect, 100 complete control
Procedure, shortened: as §2

[27] = test system: morning glory (Ipomoea hederacea); experiment: Test B preemergence; details: Preemergence, Rate 500 g/ha; scale 0 to 100, 0 no effect, 100 complete control
Procedure, shortened: as §2

[28] = Rate 125 g/ha, scale 0 (no effect) to 100 (complete control)
[29] = Rate 500 g/ha, scale 0 to 100, 0 is no effect, 100 is complete control

CC(C)(C)c1ccn(C2C(=O)N(c3cccc(C(F)(F)F)c3)C[S+]2[O-])n1 (stereo not drawn) [Compound 29]
Plant response rating, Flatsedge [1]: 30
Plant response rating, Rice (rice (Oryza saliva) [2]): 0
Plant response rating, Ducksalad [3]: 0
Plant response rating, Barnyardgrass [4]: 0
Plant response rating, Blackgrass [5, 28]: 0
Plant response rating, Blackgrass [5, 29]: 0
Plant response rating, Velvetleaf [6, 28]: 0
Plant response rating, Velvetleaf [6, 29]: 20
Plant response rating, Foxtail, Giant [7, 28]: 0
Plant response rating, Foxtail, Giant [7, 29]: 0
Plant response rating, Wild Oat (wild oat (Avena fatua); [28]): 0
Plant response rating, Wild Oat (wild oat (Avena fatua); [29]): 0
Plant response rating, Corn (corn (Zea mays) [8]; [28]): 0
Plant response rating, Corn (corn (Zea mays) [8]; [29]): 0
Plant response rating, Surinam grass [9, 28]: 0
Plant response rating, Surinam grass [9, 29]: 0
Plant response rating, Wheat [10, 28]: 0
Plant response rating, Wheat [10, 29]: 0
Plant response rating, Crabgrass [11, 28]: 0
Plant response rating, Crabgrass [11, 29]: 50
Plant response rating, Cocklebur [12, 28]: 0
Plant response rating, Cocklebur [12, 29]: 0
Plant response rating, Lambsquarters [13, 28]: 0
Plant response rating, Lambsquarters [13, 29]: 20
Plant response rating, Pigweed [14, 28]: 30
Plant response rating, Pigweed [14, 29]: 30
Plant response rating, Barnyardgrass [15, 28]: 0
Plant response rating, Barnyardgrass [15, 29]: 0
Plant response rating, Morningglory [16, 28]: 0
Plant response rating, Morningglory [16, 29]: 0
Plant response rating, Velvetleaf [17]: 20
Plant response rating, Foxtail, Giant ([18]; Preemergence, Rate 500 g/ha): 0
Plant response rating, Foxtail, Giant ([18]; preemergence, Rate 125 g/ha): 0
Plant response rating, Corn (corn (Zea mays) [19]; Preemergence, Rate 500 g/ha): 0
Plant response rating, Corn (corn (Zea mays) [19]; preemergence, Rate 125 g/ha): 0
Plant response rating, Surinam grass ([20]; Preemergence, Rate 500 g/ha): 0
Plant response rating, Surinam grass ([20]; preemergence, Rate 125 g/ha): 0
Plant response rating, Crabgrass ([21]; Preemergence, Rate 500 g/ha): 0
Plant response rating, Crabgrass ([21]; preemergence, Rate 125 g/ha): 0
Plant response rating, Cocklebur ([22]; Preemergence, Rate 500 g/ha): 0
Plant response rating, Cocklebur ([22]; preemergence, Rate 125 g/ha): 0
Plant response rating, Rice (rice (Oryza saliva) [23]): 0
Plant response rating, Lambsquarters ([24]; Preemergence, Rate 500 g/ha): 100
Plant response rating, Lambsquarters ([24]; preemergence, Rate 125 g/ha): 0
Plant response rating, Pigweed [25]: 70
Plant response rating, Barnyardgrass ([26]; Preemergence, Rate 500 g/ha): 20
Plant response rating, Barnyardgrass ([26]; preemergence, Rate 125 g/ha): 0
Plant response rating, Morningglory [27]: 30

Cc1ccc(N2CCC(n3ccc(C(C)(C)C)n3)C2=O)cc1Br (stereo not drawn) [Compound 35]
Plant response rating, Flatsedge [1]: 100
Plant response rating, Rice (rice (Oryza saliva) [2]): 0
Plant response rating, Ducksalad [3]: 0
Plant response rating, Barnyardgrass [4]: 60
Plant response rating, Blackgrass [5, 28]: 0
Plant response rating, Blackgrass [5, 29]: 0
Plant response rating, Velvetleaf [6, 28]: 0
Plant response rating, Velvetleaf [6, 29]: 0
Plant response rating, Foxtail, Giant [7, 28]: 0
Plant response rating, Foxtail, Giant [7, 29]: 0
Plant response rating, Wild Oat (wild oat (Avena fatua); [28]): 0
Plant response rating, Wild Oat (wild oat (Avena fatua); [29]): 0
Plant response rating, Corn (corn (Zea mays) [8]; [28]): 0
Plant response rating, Corn (corn (Zea mays) [8]; [29]): 0
Plant response rating, Surinam grass [9, 28]: 0
Plant response rating, Surinam grass [9, 29]: 0
Plant response rating, Wheat [10, 28]: 0
Plant response rating, Wheat [10, 29]: 0
Plant response rating, Crabgrass [11, 28]: 0
Plant response rating, Crabgrass [11, 29]: 0
Plant response rating, Cocklebur [12, 28]: 40
Plant response rating, Cocklebur [12, 29]: 40
Plant response rating, Lambsquarters [13, 28]: 0
Plant response rating, Lambsquarters [13, 29]: 80
Plant response rating, Pigweed [14, 28]: 90
Plant response rating, Pigweed [14, 29]: 90
Plant response rating, Barnyardgrass [15, 28]: 0
Plant response rating, Barnyardgrass [15, 29]: 40
Plant response rating, Morningglory [16, 28]: 0
Plant response rating, Morningglory [16, 29]: 20
Plant response rating, Velvetleaf [17]: 0
Plant response rating, Foxtail, Giant ([18]; Preemergence, Rate 500 g/ha): 0
Plant response rating, Foxtail, Giant ([18]; preemergence, Rate 125 g/ha): 0
Plant response rating, Corn (corn (Zea mays) [19]; Preemergence, Rate 500 g/ha): 0
Plant response rating, Corn (corn (Zea mays) [19]; preemergence, Rate 125 g/ha): 0
Plant response rating, Surinam grass ([20]; Preemergence, Rate 500 g/ha): 0
Plant response rating, Surinam grass ([20]; preemergence, Rate 125 g/ha): 0
Plant response rating, Crabgrass ([21]; Preemergence, Rate 500 g/ha): 100
Plant response rating, Crabgrass ([21]; preemergence, Rate 125 g/ha): 0
Plant response rating, Cocklebur ([22]; Preemergence, Rate 500 g/ha): 0
Plant response rating, Cocklebur ([22]; preemergence, Rate 125 g/ha): 0
Plant response rating, Rice (rice (Oryza saliva) [23]): 0
Plant response rating, Lambsquarters ([24]; Preemergence, Rate 500 g/ha): 100
Plant response rating, Lambsquarters ([24]; preemergence, Rate 125 g/ha): 0
Plant response rating, Pigweed [25]: 100
Plant response rating, Barnyardgrass ([26]; Preemergence, Rate 500 g/ha): 60
Plant response rating, Barnyardgrass ([26]; preemergence, Rate 125 g/ha): 0
Plant response rating, Morningglory [27]: 0
